One data set has as its system CTLL-2 cells. Briefly: Inhibitory effect on CTLL-2 cell proliferation. The class given is cell-based. Particulars: alamar blue, read-out: IC50 (nM) CTLL-2 (h). The procedure:
CTLL-2, P-STAT3 and TF-1 cells were seeded in a 96-well culture plate at a density of 20,000/well with 90 µL per well, and the blank well was an equal amount of complete medium. 10 ul of different compound dilutions were added to each plate row BC, DE, and FG, and 5% DMSO medium with equal volume of the compound was added to positive wells and negative wells, and the final concentration of DMSO was 0.5%. After incubating in a 37° C. incubator for 20 h, alamar blue was added, the plate was incubated for 4 h, the fluorescence intensity of each well under the conditions of […], 580 nm wavelength was measured, and the IC50 value was calculated.

A short description of data set [1]: Pharmacokinetic evaluation in rats after intravenous injection and oral administration. The class given is in vivo. Particulars: rat, plasma; for AUC(0-t): read-out: PK AUClast; for Cmax: read-out: PK Cmax; for half-life: read-out: PK T½ (converted). Here is the method: The analytical LC/MS/MS system includes an Agilent 1200 series vacuum degasser, a binary syringe pump, an orifice plate autosampler, a column oven, and an Agilent G6430 triple quadrupole mass spectrometer with an electrospray ionization (ESI) source.
Agilent XDB-C18, 2.1 × 30 mm, 3.5 µM column was used to analysis, 5 µL sample was injected. Analytical conditions: Mobile phases were 0.1% formic acid in water (A) and 0.1% formic acid in methanol (B). The flow rate was 0.4 mL/min.
In addition, Agilent 6330 series LC/MS/MS spectrometer was used for analysis, equipped with G1312A binary syringe pump, G1367A automatic sampler and G1314C UV detector; LC/MS/MS spectrometer used ESI radiation source. Optimum analysis was achieved using standards with appropriate cation model processing and MRM conversion for each analyte. A Capcell MP-C18 column, 100 × 4.6 mm I.D., 5 µM (Phenomenex, Torrance, California, USA) was used during the analysis. Mobile phase was 5 mM ammonium acetate, 0.1% methanol in water (A): 5 mM ammonium acetate, 0.1% methanol in acetonitrile (B) (70/30, v/v); flow rate was 0.6 mL/min; column temperature was maintained at room temperature; 20 µL of sample was injected.
The present invention evaluates the pharmacokinetic studies of the compounds of the present invention in mice, rats, dogs or monkeys. The compounds of the present invention were administered in the form of aqueous solution or 2% HPMC + 1% Tween-80 aqueous solution, 5% DMSO + 5% saline solution, 4% MC or capsule. For intravenous administration, animals were dosed at about 0.5, 0.6, 1 or 2 mg/kg. The oral doses (p.o.) were 5 or 10 mg/kg for rats and mice, and 10 mg/kg for dogs and monkeys. Bloods (0.3 mL) were taken at time points 0.25, 0.5, 1.0, 2.0, 3.0, 4.0, 6.0, 8.0, 12 and 24 h and centrifuged at 3,000 or 4,000 rpm for 10 min. Plasma solutions were collected and stored at -20° C. or -70° C. until LC/MS/MS analysis as described above. […] Table 2 is the experimental results of the pharmacokinetic characteristics of the compounds provided in the examples of the present invention in rats.

A further data set relates to TF-1 cells. Briefly: Inhibitory effect on TF-1 cell proliferation. The format is cell-based. Particulars: Homo sapiens, alamar blue, read-out: IC50 (nM) TF-1 (h). The procedure: TF-1 cells were seeded in a 96-well culture plate at a density of 20,000/well with 80 µL per well, the blank well was an equal amount of complete medium, and 10 µL of the compound dilution solution was added to the 96-well plate B1-11, C1-11, E1-11, F1-11, positive and negative wells were added with 5% DMSO medium equal to the volume of the compound, and the final concentration of DMSO was 0.5%. After 30 min, GM-CSF with a final concentration of 2 ng/mL was added to rows B, C, and D (positive wells), and the remaining wells (rows E, F, and G) were added with the same volume of medium as cytokines (negative wells). After incubation for 44 h at 37° C. in 5% CO2, alamar blue was added, the plate was incubated for 4 h, the fluorescence intensity of each well under the conditions of […], 580 nm wavelength was measured, and the IC50 value was calculated.
CTLL-2, P-STAT3 and TF-1 cells were seeded in a 96-well culture plate at a density of 20,000/well with 90 µL per well, and the blank well was an equal amount of complete medium. 10 ul of different compound dilutions were added to each plate row BC, DE, and FG, and 5% DMSO medium with equal volume of the compound was added to positive wells and negative wells, and the final concentration of DMSO was 0.5%. […]

Read-outs that look alike come from different tables or passages of the source.

On to `CC(=O)Nc1cc2c(-c3ccc4c(n3)C3(CCOC3)OC4)cn(C)c2cn1` (stereo not drawn) [Example 2, N-(3-(4,5-Dihydro-2H,5′H-Spiro[Furan-3,7′-Furo[3,4-b]Pyridin]-2′-yl)-1-Methyl-1H-Pyrrolo[2,3-c]Pyridin-5-yl)Acetamide], for which the half-inhibitory concentration (IC50) in the data set with CTLL-2 cells is > 10000 nM; in the data set on TF-1 cells, 7560 nM. Further, the results for the AUC(0-t) in data set [1] (IV 1 mg/kg) and in data set [1] (PO 5 mg/kg) were 1140 ng·h/mL and 9430 ng·h/mL, respectively. Also, the maximum concentration (Cmax) in data set [1] (IV 1 mg/kg) turned out to be 1010 ng/mL; in data set [1] (PO 5 mg/kg) it was 1990 ng/mL. In addition, the values for the half-life in data set [1] (IV 1 mg/kg) and in data set [1] (PO 5 mg/kg) were 0.971 h and 2.71 h, respectively. Besides, the bioavailability in data set [1] (oral bioavailability, PO 5 mg/kg) is 165%.

The term IC50 denotes the concentration needed to halve the response being measured. As usually defined, the Cmax is the maximum level reached in the sampled fluid or tissue.

(Values after patent publication US20230339977A1, “SUBSTITUTED HETEROARYL COMPOUND, AND COMPOSITION AND APPLICATION THEREOF” (SUNSHINE LAKE PHARMA CO., LTD., priority 2020, published 2023).)
